# Measured values taken from the NIST ThermoML archive (doi:10.1016/j.jct.2014.06.011).
# ± gives the expanded uncertainty stated by the source.
# Columns and labels:
# [1] = Crystal; DTA
# [2] = Molar enthalpy of transition or fusion; settings: Crystal; DSC
Structure (SMILES),Normal melting temperature [1],Molar enthalpy of transition or fusion [2]
CCCCCCCCCCO [decan-1-ol],7.2 ± 0.7 °C,6.88 ± 0.741 kcal/mol
CCCCCCCCCC(=O)O [decanoic acid],32.2 ± 0.7 °C,6.69 ± 0.741 kcal/mol
CCCCCCCCO [octan-1-ol],-14.4 ± 0.7 °C,5.66 ± 0.717 kcal/mol
CCCCCCCC(=O)O [octanoic acid],16.6 ± 0.7 °C,5.11 ± 0.717 kcal/mol
